Data set [1] concerns FaDu. Put plainly: Cytotoxicity against human FaDu cells assessed as reduction of cell viability measured after 24 hrs by MTT assay. Type of data set: functional, cell-based. (Tetrazolium dyes change colour on reduction, which living cells bring about.)
Data set [2] deals with FaDu. Put plainly: Cytotoxicity against human FaDu cells assessed as reduction of cell viability at 20 uM measured after 24 hrs by MTT assay. Type of data set: functional.
For a further data set, the system named is MCF7. Put plainly: Cytotoxicity against human MCF7 cells assessed as reduction of cell viability at 25 uM measured after 24 hrs by MTT assay. It counts as functional.
Data set [3] in a line: Cytotoxicity against human DPSC cells assessed as reduction of cell viability at 20 uM measured after 24 hrs by MTT assay. Type of data set: toxicity, cell-based.
A short description of data set [4]: Cytotoxicity against human YD-15 cells assessed as reduction of cell viability at 50 uM measured after 24 hrs by MTT assay. Type of data set: functional.
The target in data set [5] is T1, Indoleamine 2,3-dioxygenase 1 (Homo sapiens, UniProt P14902). Put plainly: Inhibition of human IDO1 expressed in human FaDu cells at 2.78 uM incubated for 24 hrs by ELISA assay relative to control. It counts as cell-based. For orientation: An ELISA detects its analyte on a solid surface through an enzyme-linked reagent.
Target sequence in this assay (P14902 whole entry, looked up): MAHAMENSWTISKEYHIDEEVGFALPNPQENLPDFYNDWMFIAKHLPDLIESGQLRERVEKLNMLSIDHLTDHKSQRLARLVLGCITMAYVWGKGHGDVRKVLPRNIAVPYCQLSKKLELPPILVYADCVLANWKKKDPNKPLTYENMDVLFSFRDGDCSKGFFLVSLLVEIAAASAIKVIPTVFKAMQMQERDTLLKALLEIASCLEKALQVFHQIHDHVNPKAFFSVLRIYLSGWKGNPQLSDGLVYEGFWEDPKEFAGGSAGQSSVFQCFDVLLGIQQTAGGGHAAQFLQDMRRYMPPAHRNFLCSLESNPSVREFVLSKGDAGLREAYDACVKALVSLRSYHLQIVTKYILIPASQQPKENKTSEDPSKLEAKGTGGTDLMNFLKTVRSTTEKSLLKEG
For data set [6], the system named is FaDu. Put plainly: Induction of apoptosis in human FaDu cells assessed as nuclear condensation upto 3 uM measured after 24 hrs by DAPI staining based fluorescence microscopic analysis. Type of data set: functional, cell-based.
The target in data set [7] is T1, Indoleamine 2,3-dioxygenase 1. Put plainly: Inhibition of human IDO1 expressed in human FaDu cells incubated for 24 hrs by Western blotting analysis. Type of data set: cell-based. A general note: In western blotting, separated proteins are transferred to a membrane and probed.
Target sequence in this assay (P14902 whole entry, looked up): as above
The test system of data set [8] is FaDu. The experiment in a line: Induction of apoptosis in human FaDu cells assessed as nuclear fragmentation upto 3 uM measured after 24 hrs by DAPI staining based fluorescence microscopic analysis. Type of data set: functional, cell-based.
For data set [9], the system named is FaDu. The experiment in a line: Induction of apoptosis in human FaDu cells assessed as activation of PARP level upto 3 uM measured after 24 hrs by Western blot analysis. Type of data set: functional, cell-based.
The test system of data set [10] is FaDu. Put plainly: Downregulation of MMP9 expression in human FaDu cells at 1 to 3 uM incubated for 24 hrs by Western blot analysis. Type of data set: functional, cell-based. Conditions: dose 1-3 µM.
Data set [11] can be described thus: Activation of ERK pathway in human FaDu cells assessed as decrease in JNK phosphorylation upto 3 uM measured after 24 hrs by Western blotting analysis. The conditions noted are these: filed as activator. It counts as cell-based.
Data set [12] deals with FaDu. Put plainly: Inhibition of cell migration in human FaDu cells measured after 24 hrs by wound healing assay. It counts as functional, cell-based. The conditions noted are these: dose 1-3 µM.
The nature of data set [13]: Activation of ERK pathway in human FaDu cells assessed as effect on p38 phosphorylation upto 3 uM measured after 24 hrs by Western blotting analysis. Type of data set: cell-based.
Data set [14] is described as follows: Activation of ERK pathway in human FaDu cells assessed as increase in ERK phosphorylation upto 3 uM measured after 24 hrs by Western blotting analysis. It counts as cell-based. Conditions: filed as activator.
Data set [15] has as its system FaDu. Put plainly: Induction of apoptosis in human FaDu cells assessed as activation of cleaved caspase 3 level upto 3 uM measured after 24 hrs by Western blot analysis. Type of data set: functional, cell-based.
In data set [16] the target is T1, Indoleamine 2,3-dioxygenase 1. Put plainly: Inhibition of human IDO1 expressed in human FaDu cells at IC50 incubated for 24 hrs by ELISA assay. It counts as cell-based.
Target sequence in this assay (P14902 whole entry, looked up): as above
The target is the same in data set [17]. The experiment in a line: Inhibition of human recombinant IDO1 incubated for 1 hr by HPLC analysis.
Target sequence in this assay (P14902 whole entry): as the sequence (P14902 whole entry, looked up) above

pIC50: −log10 of the molar value. Active and inactive are the calls of the source. The calls are words filed in the database; no cut-off is given here.

The pIC50 is the IC50 on a negative log10 scale, so that one unit is a factor of ten. Consider `Cc1nn(C)c2cc(NCc3ccncc3)ccc12`, for which the pIC50 with FaDu [1] was less than 4.30. Further, the Activity with FaDu [2] stood at 86.72%; with MCF7, 93.76%; in data set [3], 82.84%; in data set [4], 97.98%.

By inhibition is commonly meant the drop in the measured response relative to a control, in per cent. As for `Cc1nn(C)c2cc(NCc3ccc(Br)cc3)ccc12`, in the data set with FaDu [1], the pIC50 is 5.56. Further, the values for the inhibition (in data set [5]; in [7]; in the data set with FaDu [12]) were 45.7%, “Dose-Dependent Effect” and “Dose-Dependent Effect”, respectively. Further, the result (in the data set with FaDu [6]; with FaDu [8]; in the data set on FaDu [9]; in the data set with FaDu [10]; in [11]; in data set [14]) was Active. Also, the outcome with FaDu [15] was Active. The Activity was determined as 8.29% in the data set on FaDu [2], 102.61% in the data set on MCF7, 94.66% in [3] and 7.87% in [4]. For the same molecule, the outcome in data set [13] was inactive.

Consider `COc1ccc(CNc2ccc3c(C)nn(C)c3c2)cc1O`, for which the pIC50 in the data set with FaDu [1] is 5.21. Moreover, the Activity is on record as 7.26% with FaDu [2], 95.71% with MCF7, 86.87% in [3] and 99.01% in data set [4]. Further, the “IDO1 inhibition (qualitative)” value in data set [16] is “Active”.

Turning to `Cc1nn(C)c2cc(NCc3ccc(N(C)C)cc3)ccc12`, the pIC50 in the data set on FaDu [1] is less than 4.30. Further, the Activity worked out at 93.5% in the data set on FaDu [2], 84.75% in the data set on MCF7, 91.6% in [3] and 26.86% in data set [4].

Take `O=C(NNc1ccccc1)c1n[nH]c2cc(Br)ccc12`: the pIC50 in data set [17] is 6.14.

With `COc1ccc(CNc2ccc3c(C)nn(C)c3c2)c(O)c1`, the pIC50 in the data set on FaDu [1] is less than 4.30. The Activity was determined as 84.68% with FaDu [2], 88.27% in the data set with MCF7, 84.9% in data set [3] and 102.06% in [4].

Take `Cc1nn(C)c2cc(NCc3ccc(O)cc3)ccc12`: in the data set on FaDu [1], the pIC50 was less than 4.30. In addition, the Activity in the data set with FaDu [2] amounted to 87.72%; in the data set with MCF7, 100.39%; in data set [3], 94.7%; in [4] it was 98.59%.

For the molecule `Cc1nn(C)c2cc(NCc3ccc(F)c(F)c3)ccc12`, in the data set on FaDu [1], the pIC50 was 5.46. Also, the Activity is 8.08% with FaDu [2], 100.45% with MCF7, 90.4% in [3] and 63.3% in [4]. In addition, the “IDO1 inhibition (qualitative)” value in data set [16] is “Active”.

On to `COc1ccc(CNc2ccc3c(C)nn(C)c3c2)cc1`, for which the negative logarithm of the IC50 (pIC50) in the data set on FaDu [1] is 5.18. The Activity in the data set with FaDu [2] is on record as 10.4%; in the data set with MCF7, 102.24%; in data set [3], 91.62%; in data set [4], 67.1%. Also, the “IDO1 inhibition (qualitative)” value in [16] was “Active”.

With `COc1ccc(CNc2ccc3c(C)nn(C)c3c2)c(OC)c1OC`, in the data set on FaDu [1], the pIC50 is 5.73. The Activity with FaDu [2] turned out to be 7.8%; with MCF7, 104.07%; in data set [3], 90.13%; in data set [4], 101.41%. Moreover, the “IDO1 inhibition (qualitative)” value in data set [16] is “Active”.

On to `Cc1nn(C)c2cc(NCc3ccc([N+](=O)[O-])cc3)ccc12`, for which the pIC50 in the data set on FaDu [1] is 4.95. Further, the Activity worked out at 7.77% with FaDu [2], 98.33% in the data set with MCF7, 100.99% in data set [3] and 94.88% in data set [4]. Further, the “IDO1 inhibition (qualitative)” value in data set [16] was “Active”.

On to `COc1cc(CNc2ccc3c(C)nn(C)c3c2)cc(OC)c1OC`, for which the pIC50 in the data set on FaDu [1] was 4.70. Also, the Activity amounted to 49.4% in the data set with FaDu [2], 92.8% in the data set with MCF7, 82.54% in data set [3] and 86.71% in data set [4].

As to `Cc1nn(C)c2cc(NCc3ccc(Cl)cc3)ccc12`, the pIC50 with FaDu [1] was 5.45. Also, the Activity with FaDu [2] is given as 8.43%; in the data set on MCF7 it was 101.58%; in [3] it was 84.13%; in [4], 52.82%. The “IDO1 inhibition (qualitative)” value in data set [16] is “Active”.

The values are drawn from ChEMBL document CHEMBL5325464, “Design, synthesis and evaluation the bioactivities of novel 1,3-dimethyl-6-amino-1H-indazole derivatives as anticancer agents” (Bioorg Med Chem, 2023).
